Data reported in US20080031866A1, “METHOD FOR MODULATING THE PHARMACOKINETICS AND METABOLISM OF A THERAPEUTIC AGENT” (priority 2006, published 2008).

Experiments:
[1] = Intraduodenal dosing with and without β-glucuronidase, catheterized rat; format: in vivo; conditions: for Increase in AUC with β-glucuronidase: with vs no enzyme; for AUC / Cmax / concentration at 0 h / concentration at 0.25 h / concentration at 0.5 h / concentration at 1 h / concentration at 2 h / concentration at 3 h / concentration at 4 h / concentration at 5 h / concentration at 6 h / AUC average ± standard deviation 0 to 6 hours / Cmax average ± standard deviation: 10 mg/kg, rats N=6; for AUC: read-out: AUC average ± standard deviation 0 to 6 hours; for Cmax: read-out: Cmax average ± standard deviation; for concentration at 0 h / concentration at 0.25 h / concentration at 0.5 h / concentration at 1 h / concentration at 2 h / concentration at 3 h / concentration at 4 h / concentration at 5 h / concentration at 6 h: other: intraduodenal
Protocol: (§1) A catheterized rat model was used in which the agent alone or agent and β-glucuronidase enzyme was administered intraduodenally or intracolonically. The intraduodenal and intracolonic dosing was intended to prevent the potential for loss of enzymatic activity when orally dosing the β-glucuronidase (e.g. by degradation in the stomach). […]
(§2) For the oral gavage dosing, Compound 1 was prepared in neat PEG-400. For the intraduodenal and intracolonic dosing solutions, Compound 1 was added to neat Tween 80, the mixture was sonicated for thirty minutes at 45° C. until Compound 1 was completely dissolved and then deionized (DI) water was added to form a solution consisting of 20% Tween 80 and 80% DI water by weight.
(§3) For the oral enzyme solutions, β-glucuronidase was added to the final formulation at a concentration of 57,600 units/ml.
(§4) For the intraduodenal and intracolonic dosing, male Sprague Dawley rats weighing 300-400 g were purchased from Charles River Labs. All rat experiments were conducted under approved animal protocols. The rats were catheterized at Charles River Labs and had one or more of the following chronic catheters for dosing and sampling: jugular/carotid, duodenal, and colonic. Rats were limited to only one GI catheter and one vascular catheter. For IV dosing, rats were purchased with jugular and carotid catheters for dosing in the jugular catheter and blood sampling through the carotid catheter. For intraduodenal/intracolonic dosing, rats had one of the GI catheters for dosing and a carotid catheter for blood sampling.
(§5) The surgeries were done two weeks prior to start of testing. Rats were fed 4 hours post dose administration. All rats were dosed without anesthesia and sacrificed at the end of the study.
(§6) A quantitative method for determining the amount of (6,7-dimethoxy-2,4-dihydro-indeno[1,2-c]pyrazol-3-yl)-(3-fluoro-phenyl)-amine Compound 1 and its major metabolites, glucuronide A (Cpd 1-GluA) and glucuronide B (Cpd 1-GluB) (see Scheme A) in rat plasma was developed using phenacetin as an internal standard. [drawing 1]
(§7) The two glucuronide conjugates were prepared and purified to permit accurate quantification of the levels of intact parent Compound 1 versus Cpd 1-GluA and Cpd 1-GluB. Each standard curve for Compound 1, Cpd 1-GluA, and Cpd 1-GluB generated from rat plasma included ten concentration levels. […] The quantitative procedure for each sample included: sample preparation, HPLC separation and mass spectrometry detection.
(§8) The rat plasma was prepared using protein precipitation techniques. Reference standards and quality control samples in rat plasma for Compound 1 were transferred to a 96 deep-well plate. The precipitation solution contained 100 ng/ml of internal standard in acetonitrile. 300 μl of precipitation solution were added to 100 μl of each standard, quality control and plasma sample. Samples were vortexed for 10 mins, then centrifuged at 4500 RPM for 10 mins. 10 μl of each sample were injected for LC/MS/MS analysis.
(§9) The HPLC column chosen for the bioanalysis was purchased from Thermo Electron (Hypersil BetaBasic C18, 5 cm×2.1 mm). The eluting solvents were composed of Solvent A: 0.1% formic acid in H2O and Solvent B: 0.1% formic acid in acetonitrile. A step gradient was used and flow rate was 300 μl/min. The total run time was 3.2 mins. Solvent B was increased from 35% at 0 min to 75% at 2.1 mins and decreased back to 35% at 2.2 mins. The retention times for Compound 1, phenacetin, Cpd 1-GluA and Cpd 1-GluB were 1.1 min, 0.9 min, 1.3 min, and 1.6 min, respectively.
(§10) API3000 with a Turbo Ionspray interface from Applied Biosystems was used for the detection of Compound 1, the internal standard and major metabolites. Electrospray ionization was performed in the positive ion mode heated nebulizer with a temperature of 300° C. LC/MS/MS chromatograms were acquired in MRM (multiple reaction mode). […]

[2] = Intracolonic dosing with and without β-glucuronidase, catheterized rat; format: in vivo; conditions: male, Sprague Dawley, rat, plasma, 10 mg/kg; for Cmax: read-out: Cmax average ± standard deviation; for concentration at 0 h / concentration at 0.25 h / concentration at 0.5 h / concentration at 1 h / concentration at 2 h / concentration at 3 h / concentration at 4 h / concentration at 5 h / concentration at 6 h: other: intracolonic
Protocol: as §1, §2, §3, §4, §5, §6, §7, §8, §9, §10

[3] = male, Sprague Dawley, rat, plasma, Compound 1 10 mg/kg intraduodenal with β-glucuronidase
[4] = male, Sprague Dawley, rat, plasma, Compound 1 10 mg/kg intraduodenal without enzyme
[5] = Compound 1 10 mg/kg intraduodenal with β-glucuronidase
[6] = Compound 1 10 mg/kg intraduodenal without enzyme
[7] = rats N=6, Compound 1 10 mg/kg intracolonic with β-glucuronidase
[8] = rats N=6, Compound 1 10 mg/kg intracolonic without enzyme

In the case of `COc1cc2c(cc1OC)-c1n[nH]c(Nc3cccc(F)c3)c1C2` [Compound 1, (6,7-dimethoxy-2,4-dihydro-indeno[1,2-c]pyrazol-3-yl)-(3-fluoro-phenyl)-amine], the “Increase in AUC with β-glucuronidase” value ([1]; intraduodenal 10 mg/kg) is reported as 2.9 fold, the “Increase in AUC with β-glucuronidase” value ([1]; intraduodenal) is reported as 294% and the AUC [1, 3] is reported as 177 ± 55 ng·h/mL. For the same compound, the Cmax [1, 3] was 129 ± 41 ng/mL, the AUC [1, 4] was 60 ± 18 ng·h/mL and the Cmax [1, 4] was 75 ± 30 ng/mL. The concentration at 0 h [1, 3] was 0 ng/mL, the concentration at 0.25 h [1, 3] was 129 ± 41.4 ng/mL and the concentration at 0.5 h [1, 3] was 107 ± 26.6 ng/mL. The concentration at 1 h [1, 3] was 75.6 ± 35 ng/mL, the concentration at 2 h [1, 3] was 21.2 ± 12.5 ng/mL and the concentration at 3 h [1, 3] was 12.9 ± 4.3 ng/mL. It also gave a concentration at 4 h [1, 3] of 9.5 ± 3.1 ng/mL, a concentration at 5 h [1, 3] of 3.7 ± 6.3 ng/mL and a concentration at 6 h [1, 3] of 1.7 ± 2.7 ng/mL. It also gave a concentration at 0 h [1, 4] of 0 ng/mL, a concentration at 0.25 h [1, 4] of 75.2 ± 30.3 ng/mL and a concentration at 0.5 h [1, 4] of 55.1 ± 15.5 ng/mL. It also gave a concentration at 1 h [1, 4] of 18.7 ± 5.9 ng/mL, a concentration at 2 h [1, 4] of 3.2 ± 0.6 ng/mL and a concentration at 3 h [1, 4] of 1.5 ± 0.9 ng/mL. For the same compound, the concentration at 4 h [1, 4] was 1.6 ± 0.7 ng/mL, the concentration at 5 h [1, 4] was 0 ng/mL and the concentration at 6 h [1, 4] was 0 ng/mL. For the same compound, the Tmax ([1]; male, Sprague Dawley, rat, plasma, intraduodenal 10 mg/kg, unchanged with or without enzyme) was 30 min, the “AUC average ± standard deviation 0 to 6 hours” value [1, 5] was 177.4 ± 55.3 ng·h/mL and the “Cmax average ± standard deviation” value [1, 5] was 129.4 ± 41.1 ng/mL. The “AUC average ± standard deviation 0 to 6 hours” value [1, 6] was 60.3 ± 17.8 ng·h/mL, the “Cmax average ± standard deviation” value [1, 6] was 76.0 ± 29.0 ng/mL and the AUC ([2]; rats N=6, Compound 1 10 mg/kg intracolonic with β-glucuronidase, read-out: AUC average ± standard deviation 0 to 6 hours) was 9.5 ± 2.5 ng·h/mL. The Cmax [2, 7] was 4 ± 0.6 ng/mL, the AUC ([2]; rats N=6, Compound 1 10 mg/kg intracolonic without enzyme, read-out: AUC average ± standard deviation 0 to 6 hours) was 15.5 ± 24.9 ng·h/mL and the Cmax [2, 8] was 9.5 ± 17.9 ng/mL. For the same compound, the AUC ([2]; with and without β-glucuronidase, read-out: AUC of parent after intracolonic administration) was < 16 ng·h/mL, the concentration at 0 h [2, 7] was 0 ng/mL and the concentration at 0.25 h [2, 7] was 129 ± 41.4 ng/mL. The concentration at 0.5 h [2, 7] was 107 ± 26.6 ng/mL, the concentration at 1 h [2, 7] was 75.6 ± 35 ng/mL and the concentration at 2 h [2, 7] was 21.2 ± 12.5 ng/mL. The concentration at 3 h [2, 7] was 12.9 ± 4.3 ng/mL, the concentration at 4 h [2, 7] was 9.5 ± 3.1 ng/mL and the concentration at 5 h [2, 7] was 3.7 ± 6.3 ng/mL. The concentration at 6 h [2, 7] was 1.7 ± 2.7 ng/mL, the concentration at 0 h [2, 8] was 0 ng/mL and the concentration at 0.25 h [2, 8] was 6.4 ± 11.5 ng/mL. It also gave a concentration at 0.5 h [2, 8] of 8 ± 15.7 ng/mL, a concentration at 1 h [2, 8] of 8.7 ± 18.2 ng/mL and a concentration at 2 h [2, 8] of 2 ± 3.1 ng/mL. The concentration at 3 h [2, 8] was 1.1 ± 2.7 ng/mL, the concentration at 4 h [2, 8] was 0 ng/mL and the concentration at 5 h [2, 8] was 0 ng/mL. It also gave a concentration at 6 h [2, 8] of 0 ng/mL.
